≈ marks a conversion by molar mass, not a printed value.
Experiments:
[1] = Increase of PGRN level in mouse microglial BV-2 cell relative to control; assay type: functional
[2] = molecular target: Muscarinic acetylcholine receptor M3 (Homo sapiens, UniProt P20309); assay: Antagonist activity at muscarinic M3 receptor (unknown origin)
[3] = Half life in iv dosed mouse; assay type: ADME, organism-based; details: in vivo
[4] = Half life in cynomolgus monkey hepatocytes; assay type: ADME, cell-based, Macaca fascicularis, Hepatocyte
[5] = Volume of distribution at steady state in mouse; assay type: ADME, organism-based; details: in vivo, read-out: Vdss
[6] = Unbound partition coefficient of the compound in mouse incubated for 8 hrs; assay type: ADME; details: brain, read-out: K(p,uu,brain)
[7] = Half life in human hepatocytes; assay type: ADME, cell-based, Hepatocyte
[8] = Protein binding in rat assessed as unbound fraction; assay type: ADME
[9] = Intrinsic clearance in cynomolgus monkey hepatocytes; assay type: ADME, cell-based, Macaca fascicularis, Hepatocyte
[10] = Aqueous solubility of compound in pH 7.4 PBS measured; assay type: physicochemical
[11] = Clearance in mouse; assay type: ADME, organism-based; details: in vivo
[12] = Half life in rat hepatocytes; assay type: ADME, cell-based, Hepatocyte
[13] = Half life in po dosed rat; assay type: ADME, organism-based; details: in vivo
[14] = Half life in iv dosed rat; assay type: ADME, organism-based; details: in vivo
[15] = Cmax in rat; assay type: ADME; details: in vivo
[16] = Oral bioavailability in rat; assay type: ADME, organism-based; details: in vivo, dose 10 mg/kg
[17] = Protein binding in mouse brain assessed as unbound fraction; assay type: ADME, tissue-based
[18] = Unbound partition coefficient of the compound in rat incubated for 8 hrs; assay type: ADME; details: brain, read-out: K(p,uu,brain)
[19] = Oral bioavailability in mouse; assay type: ADME, organism-based; details: in vivo, dose 10 mg/kg
[20] = Clearance in rat; assay type: ADME; details: in vivo
[21] = Half life in po dosed mouse; assay type: ADME, organism-based; details: in vivo
[22] = Protein binding in rat brain assessed as unbound fraction; assay type: ADME, tissue-based
[23] = Intrinsic clearance in human hepatocytes; assay type: ADME, cell-based, Hepatocyte
[24] = Cmax in mouse; assay type: ADME, organism-based; details: in vivo
[25] = Apparent permeability from apical to basolateral side in dog MDCK-MDR1 cells; assay type: ADME, cell-based, Canis lupus familiaris
[26] = Protein binding in mouse assessed as unbound fraction; assay type: ADME
[27] = Volume of distribution at steady state in rat; assay type: ADME; details: in vivo, read-out: Vdss
[28] = Protein binding in human assessed as unbound fraction; assay type: ADME
[29] = Oral bioavailability in cynomolgus monkey; assay type: ADME, organism-based, Macaca fascicularis; details: in vivo, dose 10 mg/kg
[30] = Unbound partition coefficient of the compound in cynomolgus monkey incubated for 8 hrs; assay type: ADME, cell-free, Macaca fascicularis, Brain/Plasma; details: brain, read-out: K(p,uu,brain)
[31] = Cmax in cynomolgus monkey; assay type: ADME, Macaca fascicularis; details: in vivo
[32] = Protein binding in cynomolgus monkey assessed as unbound fraction; assay type: ADME, Macaca fascicularis
[33] = Half life in iv dosed cynomolgus monkey; assay type: ADME, organism-based, Macaca fascicularis; details: in vivo
[34] = Half life in po dosed cynomolgus monkey; assay type: ADME, organism-based, Macaca fascicularis; details: in vivo
[35] = Clearance in cynomolgus monkey; assay type: ADME, Macaca fascicularis; details: in vivo, dose 1 mg/kg
[36] = Volume of distribution at steady state in cynomolgus monkey; assay type: ADME, Macaca fascicularis; details: in vivo, read-out: Vdss

Chain of Muscarinic acetylcholine receptor M3 (P20309 whole entry): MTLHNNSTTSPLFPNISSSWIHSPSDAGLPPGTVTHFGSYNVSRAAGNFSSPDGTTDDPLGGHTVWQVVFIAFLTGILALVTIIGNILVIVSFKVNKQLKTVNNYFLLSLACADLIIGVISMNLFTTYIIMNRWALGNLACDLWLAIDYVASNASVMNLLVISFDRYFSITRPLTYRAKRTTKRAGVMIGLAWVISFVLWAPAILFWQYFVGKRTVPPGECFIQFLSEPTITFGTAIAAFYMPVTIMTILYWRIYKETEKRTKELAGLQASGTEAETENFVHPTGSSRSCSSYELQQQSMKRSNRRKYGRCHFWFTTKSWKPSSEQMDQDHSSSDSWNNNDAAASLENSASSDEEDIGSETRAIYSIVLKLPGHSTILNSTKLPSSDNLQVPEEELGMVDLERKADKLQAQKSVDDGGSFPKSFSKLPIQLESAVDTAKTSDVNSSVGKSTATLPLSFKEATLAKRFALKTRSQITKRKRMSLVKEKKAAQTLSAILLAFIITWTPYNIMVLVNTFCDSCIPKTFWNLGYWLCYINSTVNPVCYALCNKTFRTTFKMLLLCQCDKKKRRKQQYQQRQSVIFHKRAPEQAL

## O=C(OCC1CN2CCC1CC2)N1CCc2ccccc2[C@@H]1c1ccc(F)cc1 (some centres undefined)
[1]
  EC50: 1990 nM

## O=C(OC1CN2CCC1CC2)N1CCc2ccccc2[C@@H]1c1ccc(OC(F)(F)F)cc1 (some centres undefined)
[1]
  EC50: 2600 nM

## O=S(=O)(CC1CN2CCC1CC2)N1CCc2ccccc2[C@@H]1c1ccc(F)cc1 (some centres undefined)
[1]
  EC50: 1700 nM

## CS(=O)(=O)c1ccc([C@H]2c3ccccc3CCN2C(=O)OC2CN3CCC2CC3)cc1 (some centres undefined)
[1]
  EC50: > 10000 nM

## O=S(=O)(NC1CN2CCC1CC2)N1CCc2ccccc2[C@@H]1c1ccc(F)cc1 (some centres undefined)
[1]
  EC50: > 10000 nM

## O=C(OC1CN2CCC1CC2)N1CCc2ccccc2[C@@H]1c1ccc(F)cc1 (some centres undefined)
[2]
  IC50: 17000 nM
[3]
  half-life: 2.1 min
[4]
  half-life: 10 min
[5]
  Vd: 4.91 L/kg
[6]
  Kp uu at 8 h: 1.08
[7]
  half-life: > 240 min
[8]
  fraction unbound: 0.086
[9]
  CLH: 0.0698 mL/min/kg
[10]
  solubility: 1990 µM (≈ 757 µg/mL)
[11]
  clearance: 44.2 mL/min/kg
[12]
  half-life: 29 min
[13]
  half-life: 2.1 min
[14]
  half-life: 1.9 min
[15]
  Cmax: 37 nM
[16]
  bioavailability: 16%
[17]
  fraction unbound: 0.008
[18]
  Kp uu at 8 h: 0.26
[19]
  bioavailability: 64%
[20]
  clearance: 198 mL/min/kg
[21]
  half-life: 4.1 min
[22]
  fraction unbound: 0.008
[23]
  CLH: 0.023 mL/min/kg
[24]
  Cmax: 28 nM
[25]
  Papp A→B: 7.59 ×10⁻⁶ cm/s
[1]
  EC50: 257 nM
[26]
  fraction unbound: 0.02
[27]
  Vd: 4.65 L/kg
[28]
  fraction unbound: 0.06

## O=C(OC1CN2CCC1CC2)N1CCc2ccccc2[C@@H]1c1cccc(F)c1 (some centres undefined)
[1]
  EC50: 3550 nM

## O=C(OC1CN2CCC1CC2)N1CCc2ccccc2[C@@H]1c1cccc(F)c1F (some centres undefined)
[1]
  EC50: 1110 nM

## O=C(NC1CN2CCC1CC2)N1CCc2ccccc2[C@@H]1c1ccc(F)cc1 (some centres undefined)
[2]
  IC50: 10000 nM
[10]
  solubility: 5960 µM (≈ 2260 µg/mL)
[25]
  Papp A→B: 0.95 ×10⁻⁶ cm/s
[1]
  EC50: 265 nM

## O=C(OCCC12CCN(CC1)CC2)N1CCc2ccccc2[C@@H]1c1ccc(F)cc1
[1]
  EC50: > 10000 nM

## O=C(NC1CN2CCC1CC2)C(=O)N1CCc2ccccc2[C@@H]1c1ccc(F)cc1 (some centres undefined)
[1]
  EC50: 1610 nM

## O=C(COC1CN2CCC1CC2)N1CCc2ccccc2[C@@H]1c1ccc(F)cc1 (some centres undefined)
[1]
  EC50: 811 nM

## O=C(OC1CN2CCC1CC2)N1CCc2ccccc2[C@@H]1c1ccc(Cl)cc1 (some centres undefined)
[2]
  IC50: 1480 nM
[1]
  EC50: 339 nM

## O=C(OC1CN2CCC1CC2)N1CCc2ccccc2[C@@H]1c1ccc(OC2CC2)cc1 (some centres undefined)
[1]
  EC50: > 10000 nM

## CC1(C)C(OC(=O)N2CCc3ccccc3[C@@H]2c2ccc(F)cc2)C2CCN1CC2 (some centres undefined)
[1]
  EC50: 574 nM

## O=C(OC1CN2CCC1CC2)N1CCc2ccccc2[C@@H]1c1ccc(F)c(F)c1 (some centres undefined)
[2]
  IC50: 10000 nM
[1]
  EC50: 2030 nM

## CN(C(=O)N1CCc2ccccc2[C@@H]1c1ccc(F)cc1)C1CN2CCC1CC2 (some centres undefined)
[1]
  EC50: 1030 nM

## C[C@]1(c2ccc(F)cc2)c2ccccc2CCN1C(=O)OC1CN2CCC1CC2 (some centres undefined)
[1]
  EC50: 3460 nM

## Fc1ccc([C@@H]2c3ccccc3CCN2CCC2CN3CCC2CC3)cc1 (some centres undefined)
[1]
  EC50: > 10000 nM

## O=C(OCC12CCN(CC1)CC2)N1CCc2ccccc2[C@H]1c1ccc(F)cc1
[29]
  bioavailability: 42%
[30]
  Kp uu at 8 h: 0.33
[3]
  half-life: 2.2 min
[4]
  half-life: 22 min
[31]
  Cmax: 32 nM
[5]
  Vd: 7.23 L/kg
[6]
  Kp uu at 8 h: 0.09
[32]
  fraction unbound: 0.176
[7]
  half-life: 198 min
[8]
  fraction unbound: 0.096
[9]
  CLH: 0.0318 mL/min/kg
[10]
  solubility: 2670 µM (≈ 1050 µg/mL)
[11]
  clearance: 51.8 mL/min/kg
[12]
  half-life: 17 min
[13]
  half-life: 5.2 min
[14]
  half-life: 2.2 min
[15]
  Cmax: 17 nM
[16]
  bioavailability: 16%
[17]
  fraction unbound: 0.008
[18]
  Kp uu at 8 h: 0.4
[19]
  bioavailability: 41%
[20]
  clearance: 102 mL/min/kg
[21]
  half-life: 2.9 min
[22]
  fraction unbound: 0.007
[23]
  CLH: 0.0397 mL/min/kg
[24]
  Cmax: 30 nM
[33]
  half-life: 6.4 min
[25]
  Papp A→B: 3.01 ×10⁻⁶ cm/s
[1]
  EC50: 146 nM
[26]
  fraction unbound: 0.048
[27]
  Vd: 16.2 L/kg
[34]
  half-life: 6.8 min
[28]
  fraction unbound: 0.086
[35]
  clearance: 20.7 mL/min/kg
[36]
  Vd: 9.6 L/kg

## O=C(OC1CN2CCC1CC2)N1CCc2ccccc2[C@H]1c1ccc(F)cc1 (some centres undefined)
[1]
  EC50: > 10000 nM

## COc1ccc([C@H]2c3ccccc3CCN2C(=O)OC2CN3CCC2CC3)cc1 (some centres undefined)
[1]
  EC50: 2870 nM

## O=C(CC1CN2CCC1CC2)N1CCc2ccccc2[C@@H]1c1ccc(F)cc1 (some centres undefined)
[2]
  IC50: 30000 nM
[25]
  Papp A→B: 2.68 ×10⁻⁶ cm/s
[1]
  EC50: 222 nM

## O=C(OC1CN2CCC1CC2)N1CCc2ccccc2[C@@H]1c1ccc(F)cc1F (some centres undefined)
[2]
  IC50: 9400 nM
[1]
  EC50: 247 nM

## O=C(C(O)C1CN2CCC1CC2)N1CCc2ccccc2[C@@H]1c1ccc(F)cc1 (some centres undefined)
[1]
  EC50: 895 nM

## O=C(O[C@@H]1CN2CCC1CC2)N1CCc2ccccc2[C@@H]1c1ccccc1
[2]
  IC50: 733 nM
[1]
  EC50: 1830 nM

## O=C(OC1CN2CCC1(F)CC2)N1CCc2ccccc2C1c1ccc(F)cc1 (single isomer, unassigned)
[1]
  EC50: 1250 nM

## O=C(O[C@H]1CN2CCC1CC2)N1CCc2ccccc2[C@@H]1c1ccccc1 [SOLIFENACIN]
[2]
  IC50: 24 nM
[1]
  EC50: 1300 nM

— ChEMBL document CHEMBL4819154, “Discovery of quinuclidine modulators of cellular progranulin” (Bioorg Med Chem Lett, 2021)
